PMC5218480 (PLoS ONE, 2017)

Tested on: MV-4-11 cells
Assay: Gene expression microarray analysis (Affymetrix PrimeView) and GSEA
Assay type: cell-based, human
Set-up: RFU PODN (11730768_x_at) / Fold change /veh PODN (11730768_x_at) / RFU LINC00158 (11744669_a_at) / Fold change /veh LINC00158 (11744669_a_at) / RFU DUSP10 (11751237_a_at) / Fold change /veh DUSP10 (11751237_a_at) / RFU ID3 (11757404_x_at) / Fold change /veh ID3 (11757404_x_at) / RFU PLEKHG5 (11737974_s_at) / Fold change /veh PLEKHG5 (11737974_s_at) / RFU LRRC4B (11730491_at) / Fold change /veh LRRC4B (11730491_at) / RFU GIMAP4 (11747438_a_at) / Fold change /veh GIMAP4 (11747438_a_at) / RFU KRT8 (11758183_x_at) / Fold change /veh KRT8 (11758183_x_at) / RFU CNN1 (11734310_a_at) / Fold change /veh CNN1 (11734310_a_at) / RFU VPS37D (11726825_at) / Fold change /veh VPS37D (11726825_at) / RFU C10orf10 (11716522_x_at) / Fold change /veh C10orf10 (11716522_x_at) / RFU KIR2DL2 /// KIR2DL4 /// KIR2DL5A /// KIR2DL5B /// KIR2DS1 /// KIR2DS2 /// KIR2DS3 /// KIR2DS4 /// KIR3DL3 /// KIR3DL3 /// KIR3DS1 (11738374_at) / Fold change /veh KIR2DL2 /// KIR2DL4 /// KIR2DL5A /// KIR2DL5B /// KIR2DS1 /// KIR2DS2 /// KIR2DS3 /// KIR2DS4 /// KIR3DL3 /// KIR3DL3 /// KIR3DS1 (11738374_at) / RFU C1QL1 (11718748_at) / Fold change /veh C1QL1 (11718748_at) / RFU TMPRSS4 (11747572_a_at) / Fold change /veh TMPRSS4 (11747572_a_at) / RFU HAMP (11756126_x_at) / Fold change /veh HAMP (11756126_x_at) / RFU RNFT2 (11725882_a_at) / Fold change /veh RNFT2 (11725882_a_at) / RFU NR4A2 (11747474_a_at) / Fold change /veh NR4A2 (11747474_a_at) / RFU ABCC12 (11746883_a_at) / Fold change /veh ABCC12 (11746883_a_at) / RFU TMEM136 (11760407_x_at) / Fold change /veh TMEM136 (11760407_x_at) / RFU CLDN22 /// WWC2 (11732394_at) / Fold change /veh CLDN22 /// WWC2 (11732394_at) / RFU HLA-DPB1 (11760878_x_at) / Fold change /veh HLA-DPB1 (11760878_x_at) / RFU SPINT1 (11716480_a_at) / Fold change /veh SPINT1 (11716480_a_at) / RFU GAP43 (11754022_s_at) / Fold change /veh GAP43 (11754022_s_at) / RFU A4GNT (11735810_at) / Fold change /veh A4GNT (11735810_at) / RFU PRB3 (11715151_x_at) / Fold change /veh PRB3 (11715151_x_at) / RFU TUBB4B (11761932_at) / Fold change /veh TUBB4B (11761932_at) / RFU CAPN14 (11732068_a_at) / Fold change /veh CAPN14 (11732068_a_at) / RFU TMCC2 (11721928_a_at) / Fold change /veh TMCC2 (11721928_a_at) / RFU IRGQ (11745062_a_at) / Fold change /veh IRGQ (11745062_a_at) / RFU FAM174B (11720279_a_at) / Fold change /veh FAM174B (11720279_a_at) / RFU TMPRSS4 (11748680_a_at) / Fold change /veh TMPRSS4 (11748680_a_at) / RFU FAM212B (11763350_a_at) / Fold change /veh FAM212B (11763350_a_at) / RFU PLEKHG5 (11743358_a_at) / Fold change /veh PLEKHG5 (11743358_a_at) / RFU ZSCAN30 (11745921_a_at) / Fold change /veh ZSCAN30 (11745921_a_at) / RFU CMKLR1 (11741424_a_at) / Fold change /veh CMKLR1 (11741424_a_at) / RFU LOC101060620 /// MAPK8IP1 (11723275_at) / Fold change /veh LOC101060620 /// MAPK8IP1 (11723275_at) / RFU SPTSSB (11747773_x_at) / Fold change /veh SPTSSB (11747773_x_at) / RFU PRSS12 (11739890_at) / Fold change /veh PRSS12 (11739890_at) / RFU BIN1 (11741810_x_at) / Fold change /veh BIN1 (11741810_x_at) / RFU WNT11 (11732464_a_at) / Fold change /veh WNT11 (11732464_a_at) / RFU C10orf10 (11716521_a_at) / Fold change /veh C10orf10 (11716521_a_at) / RFU C5orf56 (11738089_at) / Fold change /veh C5orf56 (11738089_at) / RFU CYB561 (11721691_x_at) / Fold change /veh CYB561 (11721691_x_at) / RFU ANKRD19P (11752326_a_at) / Fold change /veh ANKRD19P (11752326_a_at) / RFU OR2T12 /// OR2T33 /// OR2T8 (11738714_s_at) / Fold change /veh OR2T12 /// OR2T33 /// OR2T8 (11738714_s_at) / RFU VCAN (11748164_a_at) / Fold change /veh VCAN (11748164_a_at) / RFU JSRP1 (11732532_at) / Fold change /veh JSRP1 (11732532_at) / RFU KRTAP10-11 (11738290_x_at) / Fold change /veh KRTAP10-11 (11738290_x_at) / RFU MYO3A (11730013_a_at) / Fold change /veh MYO3A (11730013_a_at) / RFU EBF3 (11725865_a_at) / Fold change /veh EBF3 (11725865_a_at) / RFU CAMK2N1 (11719241_x_at) / Fold change /veh CAMK2N1 (11719241_x_at) / RFU C5orf56 (11738088_a_at) / Fold change /veh C5orf56 (11738088_a_at) / RFU OLFML3 (11715873_a_at) / Fold change /veh OLFML3 (11715873_a_at) / RFU LOC100653217 /// NTM (11731650_a_at) / Fold change /veh LOC100653217 /// NTM (11731650_a_at) / RFU MAPK11 (11762145_a_at) / Fold change /veh MAPK11 (11762145_a_at) / RFU FIZ1 (11724087_x_at) / Fold change /veh FIZ1 (11724087_x_at) / RFU OASL (11726364_x_at) / Fold change /veh OASL (11726364_x_at) / RFU SOX15 (11748057_x_at) / Fold change /veh SOX15 (11748057_x_at) / RFU CD79A (11719716_a_at) / Fold change /veh CD79A (11719716_a_at) / RFU HIST1H1D (11736915_at) / Fold change /veh HIST1H1D (11736915_at) / RFU CASKIN2 (11723855_a_at) / Fold change /veh CASKIN2 (11723855_a_at) / RFU LOC730098 (11760151_x_at) / Fold change /veh LOC730098 (11760151_x_at) / RFU OR4N2 (11742367_at) / Fold change /veh OR4N2 (11742367_at) / RFU PRRT2 (11749266_a_at) / Fold change /veh PRRT2 (11749266_a_at) / RFU SNX32 (11753110_a_at) / Fold change /veh SNX32 (11753110_a_at) / RFU CDHR5 (11726645_a_at) / Fold change /veh CDHR5 (11726645_a_at) / RFU RCAN1 (11760418_a_at) / Fold change /veh RCAN1 (11760418_a_at) / RFU FAM167A (11723789_a_at) / Fold change /veh FAM167A (11723789_a_at) / RFU FAM26E (11764081_at) / Fold change /veh FAM26E (11764081_at) / RFU ISYNA1 (11749810_s_at) / Fold change /veh ISYNA1 (11749810_s_at) / RFU ACY1 (11761880_at) / Fold change /veh ACY1 (11761880_at) / RFU 11764098_at / Fold change /veh 11764098_at / RFU SAMD14 (11745864_x_at) / Fold change /veh SAMD14 (11745864_x_at) / RFU NPB (11741838_a_at) / Fold change /veh NPB (11741838_a_at) / RFU TMPRSS6 (11731388_a_at) / Fold change /veh TMPRSS6 (11731388_a_at) / RFU KRTAP10-2 (11738614_at) / Fold change /veh KRTAP10-2 (11738614_at) / RFU ARHGAP8 /// PRR5-ARHGAP8 (11727945_x_at) / Fold change /veh ARHGAP8 /// PRR5-ARHGAP8 (11727945_x_at) / RFU KRTAP5-7 /// NADSYN1 (11734609_at) / Fold change /veh KRTAP5-7 /// NADSYN1 (11734609_at) / RFU RASL12 (11751679_a_at) / Fold change /veh RASL12 (11751679_a_at) / RFU CDKN2B (11736163_a_at) / Fold change /veh CDKN2B (11736163_a_at) / RFU PRF1 (11729649_at) / Fold change /veh PRF1 (11729649_at) / RFU, ZNF638 /// ZNF638-IT1 / Fold change vs veh, ZNF638 /// ZNF638-IT1 / RFU, PANK3 / Fold change vs veh, PANK3 / RFU, SH3YL1 / Fold change vs veh, SH3YL1 / RFU, ZEB2 / Fold change vs veh, ZEB2 / RFU, NRIP1 / Fold change vs veh, NRIP1 / RFU, PTTG1IP / Fold change vs veh, PTTG1IP / RFU, CAPN2 / Fold change vs veh, CAPN2 / RFU, MED14 / Fold change vs veh, MED14 / RFU, SNORA58 / Fold change vs veh, SNORA58 / RFU, C1orf63 / Fold change vs veh, C1orf63 / RFU, LRRFIP1 / Fold change vs veh, LRRFIP1 / RFU, NDUFAF7 / Fold change vs veh, NDUFAF7 / RFU, SLC12A2 / Fold change vs veh, SLC12A2 / RFU, IBTK / Fold change vs veh, IBTK / RFU, ESF1 / Fold change vs veh, ESF1 / Fold change vs veh, TMEM50B / RFU, TAOK1 / Fold change vs veh, TAOK1 / RFU, ACBD3 / Fold change vs veh, ACBD3 / RFU, TMA16 / Fold change vs veh, TMA16 / RFU, RWDD3 / Fold change vs veh, RWDD3 / RFU, BCAT1 / Fold change vs veh, BCAT1 / RFU, EDEM3 / Fold change vs veh, EDEM3 / RFU, TMEM33 / Fold change vs veh, TMEM33 / RFU, WDR75 / Fold change vs veh, WDR75 / RFU, AHCTF1 / Fold change vs veh, AHCTF1 / RFU, TFRC / Fold change vs veh, TFRC / RFU, ZDHHC17 / Fold change vs veh, ZDHHC17 / RFU, NOM1 / Fold change vs veh, NOM1 / RFU, ARL8B / Fold change vs veh, ARL8B / RFU, ZBTB11 / Fold change vs veh, ZBTB11 / RFU, TAMM41 / Fold change vs veh, TAMM41 / RFU, KIAA1704 /// LOC100996395 / Fold change vs veh, KIAA1704 /// LOC100996395 / RFU, ING1 / Fold change vs veh, ING1 / RFU, TRMT61B / Fold change vs veh, TRMT61B / RFU, FUBP3 / Fold change vs veh, FUBP3 / RFU, TP53 / Fold change vs veh, TP53 / RFU, TNKS2 / Fold change vs veh, TNKS2 / RFU, ZFP14 / Fold change vs veh, ZFP14 / RFU, ACTR2 / Fold change vs veh, ACTR2 / RFU, PPP3R1 / Fold change vs veh, PPP3R1 / RFU, PIK3R1 / Fold change vs veh, PIK3R1 / RFU, HNRNPA1 / Fold change vs veh, HNRNPA1 / RFU, RNF170 / Fold change vs veh, RNF170 / RFU, ZNF28 / Fold change vs veh, ZNF28 / RFU, RNGTT / Fold change vs veh, RNGTT / RFU, OGT / Fold change vs veh, OGT / RFU, BRD1 / Fold change vs veh, BRD1 / RFU, MARS / Fold change vs veh, MARS / RFU, ZNF655 / Fold change vs veh, ZNF655 / RFU, FAHD1 / Fold change vs veh, FAHD1 / RFU, BDP1 / Fold change vs veh, BDP1 / RFU, LRRCC1 / Fold change vs veh, LRRCC1 / RFU, ARID1A / Fold change vs veh, ARID1A / RFU, ZNF146 / Fold change vs veh, ZNF146 / RFU, ZNF330 / Fold change vs veh, ZNF330 / RFU, GPN3 / Fold change vs veh, GPN3 / RFU, C9orf123 / Fold change vs veh, C9orf123 / RFU, N4BP2L2 / Fold change vs veh, N4BP2L2 / RFU, ARFIP1 / Fold change vs veh, ARFIP1 / RFU, FAM179B / Fold change vs veh, FAM179B / RFU, BCL10 / Fold change vs veh, BCL10 / RFU, UHRF1BP1L / Fold change vs veh, UHRF1BP1L / RFU, BET1 / Fold change vs veh, BET1 / RFU, CNOT2 / Fold change vs veh, CNOT2 / RFU, ZNF268 / Fold change vs veh, ZNF268 / Fold change vs veh, ZNF507 / RFU, DGCR2 / Fold change vs veh, DGCR2 / RFU, WDSUB1 / Fold change vs veh, WDSUB1 / Fold change vs veh, HSP90B1 /// MIR3652 / RFU, ADSS / Fold change vs veh, ADSS / RFU, GK / Fold change vs veh, GK / RFU, ZNF148 / Fold change vs veh, ZNF148 / RFU, TAF9 / Fold change vs veh, TAF9 / RFU, SLC1A5 / Fold change vs veh, SLC1A5 / RFU, SLMO2 / Fold change vs veh, SLMO2 / RFU, ABCC4 / Fold change vs veh, ABCC4 / RFU, LOC101060439 /// RAP1B / Fold change vs veh, LOC101060439 /// RAP1B / RFU, RFX7 / Fold change vs veh, RFX7 / RFU, GTPBP10 / Fold change vs veh, GTPBP10 / RFU, CNEP1R1 / Fold change vs veh, CNEP1R1 / RFU, BIVM-ERCC5 /// ERCC5 / Fold change vs veh, BIVM-ERCC5 /// ERCC5 / RFU, ILF3 / Fold change vs veh, ILF3 / RFU 11762660_at / Fold change /veh 11762660_at / RFU VCAN (11757783_s_at) / Fold change /veh VCAN (11757783_s_at) / RFU DDX43 (11728927_at) / Fold change /veh DDX43 (11728927_at) / RFU KRT8 (11758188_x_at) / Fold change /veh KRT8 (11758188_x_at) / RFU NKD1 (11759106_at) / Fold change /veh NKD1 (11759106_at) / RFU SRD5A1 (11742802_a_at) / Fold change /veh SRD5A1 (11742802_a_at) / RFU TPSAB1 /// TPSB2 (11721975_s_at) / Fold change /veh TPSAB1 /// TPSB2 (11721975_s_at) / RFU GSTM3 (11746129_a_at) / Fold change /veh GSTM3 (11746129_a_at) / RFU IL23R (11737362_x_at) / Fold change /veh IL23R (11737362_x_at) / RFU TMEM51 (11727254_a_at) / Fold change /veh TMEM51 (11727254_a_at) / RFU PIWIL2 (11732686_x_at) / Fold change /veh PIWIL2 (11732686_x_at) / RFU ORM1 (11744905_x_at) / Fold change /veh ORM1 (11744905_x_at) / RFU CCDC152 (11743942_at) / Fold change /veh CCDC152 (11743942_at) / RFU ECM1 (11717891_a_at) / Fold change /veh ECM1 (11717891_a_at) / RFU IL23R (11748794_a_at) / Fold change /veh IL23R (11748794_a_at) / RFU TNFAIP8L3 (11732012_x_at) / Fold change /veh TNFAIP8L3 (11732012_x_at) / RFU MBOAT4 (11741988_at) / Fold change /veh MBOAT4 (11741988_at) / RFU 11764193_at / Fold change /veh 11764193_at / RFU TMEM53 (11763286_at) / Fold change /veh TMEM53 (11763286_at) / RFU MAGEB2 (11727129_at) / Fold change /veh MAGEB2 (11727129_at) / RFU TMEM200A (11744735_a_at) / Fold change /veh TMEM200A (11744735_a_at) / RFU CCDC152 (11751479_a_at) / Fold change /veh CCDC152 (11751479_a_at) / RFU FAM211A (11726209_a_at) / Fold change /veh FAM211A (11726209_a_at) / RFU RGS16 (11746705_a_at) / Fold change /veh RGS16 (11746705_a_at) / RFU VCAN (11755009_s_at) / Fold change /veh VCAN (11755009_s_at) / RFU RHOB (11743442_s_at) / Fold change /veh RHOB (11743442_s_at) / RFU RGS16 (11720943_a_at) / Fold change /veh RGS16 (11720943_a_at) / RFU RGS16 (11720944_at) / Fold change /veh RGS16 (11720944_at) / RFU, VPS4B / Fold change vs veh, VPS4B / RFU, CREB1 / Fold change vs veh, CREB1 / RFU, DNAJC13 / Fold change vs veh, DNAJC13 / RFU, GNAQ / Fold change vs veh, GNAQ / RFU, CDK5R1 / Fold change vs veh, CDK5R1 / RFU, ZRANB3 / Fold change vs veh, ZRANB3 / RFU, CUL4A / Fold change vs veh, CUL4A / RFU, CCNY / Fold change vs veh, CCNY / RFU, UFL1 / Fold change vs veh, UFL1 / RFU, COG3 / Fold change vs veh, COG3 / RFU, DIAPH2 / Fold change vs veh, DIAPH2 / RFU, SKA2 / Fold change vs veh, SKA2 / RFU, AFF3 / Fold change vs veh, AFF3 / RFU, LMF1 / Fold change vs veh, LMF1 / RFU, IPO11 / Fold change vs veh, IPO11 / RFU, DFFB / Fold change vs veh, DFFB / RFU, FOXP1 / Fold change vs veh, FOXP1 / RFU, CARD8 / Fold change vs veh, CARD8 / RFU, STRN3 / Fold change vs veh, STRN3 / RFU, ADK / Fold change vs veh, ADK / RFU, RASSF2 / Fold change vs veh, RASSF2 / RFU, WIPF1 / Fold change vs veh, WIPF1 / RFU, LARP1B / Fold change vs veh, LARP1B / RFU, RASA1 / Fold change vs veh, RASA1 / RFU, RB1 / Fold change vs veh, RB1 / RFU, PPFIA1 / Fold change vs veh, PPFIA1 / RFU, MAT2A / Fold change vs veh, MAT2A / RFU, CCT5 / Fold change vs veh, CCT5 / RFU, WDR92 / Fold change vs veh, WDR92 / RFU, CUX1 / Fold change vs veh, CUX1 / RFU, TTC7A / Fold change vs veh, TTC7A / RFU, TMEM135 / Fold change vs veh, TMEM135 / RFU, DEPTOR / Fold change vs veh, DEPTOR / RFU, CPM / Fold change vs veh, CPM / RFU, DNAJB6 / Fold change vs veh, DNAJB6 / RFU, CACNA2D3 / Fold change vs veh, CACNA2D3 / RFU, DTX4 / Fold change vs veh, DTX4 / RFU, TFCP2 / Fold change vs veh, TFCP2 / RFU, GMCL1 /// GMCL1P1 / Fold change vs veh, GMCL1 /// GMCL1P1 / RFU, AEBP2 / Fold change vs veh, AEBP2 / RFU, SNHG1 /// SNORD22 /// SNORD25 /// SNORD26 /// SNORD27 /// SNORD28 /// SNORD29 /// SNORD31 / Fold change vs veh, SNHG1 /// SNORD22 /// SNORD25 /// SNORD26 /// SNORD27 /// SNORD28 /// SNORD29 /// SNORD31 / Fold change (Aza/veh), C12orf56 (ProbeSet 11735607_a_at) / Fold change (ACY-1035/veh), C12orf56 (ProbeSet 11735607_a_at) / Fold change (Aza/veh), FGFR1OP (ProbeSet 11751329_s_at) / Fold change (ACY-1035/veh), FGFR1OP (ProbeSet 11751329_s_at) / Fold change (Aza/veh), VPS36 (ProbeSet 11739960_a_at) / Fold change (ACY-1035/veh), VPS36 (ProbeSet 11739960_a_at) / RFU SYPL1 (11715823_x_at) / Fold change /veh SYPL1 (11715823_x_at) / RFU IGFBP7 (11715501_s_at) / Fold change /veh IGFBP7 (11715501_s_at) / RFU REEP3 (11722064_at) / Fold change /veh REEP3 (11722064_at) / RFU IGLL1 (11728026_x_at) / Fold change /veh IGLL1 (11728026_x_at): dose or concentration left out as unconfirmed
Conditions: ProbeSet 11728271_at; LIST B

Nc1ccc(-c2cccs2)cc1NC(=O)c1ccc2c(c1)cc(C1CC1)n2CCN1CCOCC1 [ACY-1035]
RFU, ZNF330: 663.85 RFU
